Data taken from patent US20240294914A1, “COMPOSITIONS AND METHODS FOR TREATING HEPATITIS B VIRUS INFECTION” (priority 2021, published 2024).

What was measured:
HBV cccDNA [1] = assay: Base editing of HBV cccDNA in primary human hepatocytes (HBV-PHH); type: cell-based, Hepatitis B virus; conditions: PHH, BE4 + gRNA37 + gRNA40
Text: Base editor systems comparing guide RNAs evaluated in Example 1 were subsequently tested for anti-viral and editing efficacy using the Hepatitis B virus-primary human hepatocyte (HBV-PHH) system. Cells were transfected with the guide RNAs and mRNAs encoding the base editor as described in Example 1. […] Guide RNAs ABE-133, MSPbeam94, and ABE-85 were associated with a 70-80% reduction of HBV DNA as compared to controls. The guide RNAs PolyA-NGC1 and PolyA-NGC2 were associated with high editing followed by 90% efficacy in reduction of HbeAg.
(§1) Having identified gRNA37 and gRNA40 as effective gRNAs, the antiviral efficacy of a base editor system containing BE4, gRNA37 and gRNA40 (i.e., multiplexing gRNAs) was evaluated, FIGS. 8-10. It was determined that the base editor system multiplexed with the two gRNAs was associated with a reduction of HBV viral parameters in HepG2-NTCP cells, see FIG. 9. […] For the evaluation of editing of cccDNA, the cccDNA was enriched via Hirt extraction and ExoI/ExoIII nuclease treatment to remove rcDNA (relaxed circular DNA). Throughout the Examples provided herein, editing of cccDNA was evaluated using next generation sequencing completed using cccDNA enriched in this way.
The design of the experiments is described schematically in FIG. 14. Primary human hepatocyte (PHH) cells were infected with HBV at day 0. At days 4 and 11, the cells were transfected with mRNA encoding BE4 and with gRNA37 and gRNA40. Measurements of HBV DNA were taken over time, and measurements of HBsAg, HBeAG, HBV total DNA, 3.5 kb RNA, and cccDNA editing were taken at day 25. The experiments were carried out using a PHH co-culture system available from PhoenixBio. The PHH co-culture system maintained hepatocyte differentiation and metabolic activity for over 30 days. The HBV infection in the cells was persistent and a cccDNA level was maintained.
The design of the experiments is described schematically in FIG. 18. Primary human hepatocyte (PHH) cells were infected with HBV at day 0, at day 4 an 8-day. Treatment with lamivudine commenced (which included a 3-day pretreatment period within the 8-day total), and cells were transfected with mRNA encoding BE4 and the gRNAs gRNA37 and gRNA40 at days 7 and 14. HBV DNA levels were measured over time, and additional HBV markers were measured at day 21.
Primary hepatocytes (PHH) co-cultures infected with HBV were used to test antiviral efficacy of base editing systems. Primary hepatocyte co-culture (PHH) infected with HBV virus is a clinically relevant system for assessing anti-viral activity of base editing systems. The base editing reagents (mRNA encoding a base editor(s) and synthetic gRNA) were transfected via lipofection twice over the course of two weeks. The first transfection was performed about 3, 4, or 7 days after infection (days post infection (dpi)). Not being bound by theory, this 3-to-7-day period ensured that the cccDNA was completely formed at the time of the transfection. The second transfection was at about 7, 10, 11, or 14 days after infection. Extracellular parameters (e.g., HBsAg, HBeAg, and HBV DNA) were monitored over the course of the experiment (including the end of the experiment) and intracellular parameters (HBV DNA, viral RNA, and editing) were measured at the end of the experiment. Cells were lysed at the termination of the experiment (e.g., at 15, 17, 21, or 25 days).
Transfection details: RNA format, 800 ng total RNA per well in a 24 well plate (600 ng base editor-encoding mRNA+200 ng gRNA) transfected via lipofection (lipofectamin messengerMax, thermofisher Scientific) according to the vendor protocol.

HBV cccDNA [2] = assay: cccDNA editing in HBV-infected HepG2-NTCP cells (NGS on enriched cccDNA); type: cell-based, Hepatitis B virus; conditions: for improvement in base editing efficiency by lamivudine pretreatment: HepG2-NTCP, 3-day pretreatment (8-day total), BE4 mRNA + gRNAs 37 and 40
Text: Experiments were completed using guide RNA's listed in Table 1 to identify combinations of guide RNA's effective in treating HBV-infected cells. HepG2-NTCP cells were transfected with mRNA encoding BE4 and a guide RNA(s) selected from gRNA12, gRNA37, gRNA19, gRNA190, and gRNA40. HepG2-NTCP cells are described in Sun, et al. “NTCP-Reconstituted In Vitro HBV Infection System,” Methods Mol. Biol. 1540:1-14 (2017), DOI: 10.1007/978-1-4939-6700-1_1, the disclosure of which is incorporated herein by reference in its entirety for all purposes. Cells were infected at day 0 with HBV and then transfected with the mRNA and gRNA(s) at day 4, see FIG. 6. Measurements of HBsAg, HBeAg, total HBV DNA, and 3.5 kb viral DNA were taken at day 14, see FIG. 6. The guide RNA, gRNA37, targeted HBsAg and gRNA40 targeted the HBV core protein, see FIG. 7. The use of gRNA37 was associated with a reduction in HBsAg levels and the use of gRNA40 was associated with a reduction in HBeAg levels, see FIG. 8. Also, each of gRNA37 and gRNA40 was associated with a lowering of total HBV DNA and 3.5 kb RNA levels.
as §1
HepG2-NTCP cells were infected with HBV at day 0, at day 4 an 8-day treatment with lamivudine commenced (which included a 3-day pretreatment period within the 8-day total), at day 7 cells were transfected with mRNA encoding BE4 and gRNAs 37 and 40, and measurements were taken at day 15. […]

Hepatitis B virus = assay: Antiviral efficacy in HBV-infected primary human hepatocytes (HBV-PHH): HBsAg, HBeAg, HBV DNA, 3.5 kb RNA, rebound; type: cell-based; conditions: PHH co-culture, transfection at days 4 and 11; lamivudine 8 days then discontinued
[3] = system: naturally integrated HBV genome in PLC/PRF/5; assay: Editing of naturally integrated HBV genome in PLC/PRF/5 cells; type: cell-based, Hepatitis B virus; conditions: BE4 + gRNA
Text: This editing reduced HBsAg secretion (FIG. 34B).

HBsAg = conditions: PLC/PRF/5 cells, BE4 + gRNA, 6th day post-transfection

Row | Molecule | editing in primary hepatocytes with lamivudine pretreatment (HBV cccDNA [1]) | improvement in base editing efficiency by lamivudine pretreatment (HBV cccDNA [2]) | improvement in base editing efficiency by lamivudine pretreatment (HBV cccDNA [2]; listed as Lamivudine) [%] | functional editing by NGS on cccDNA enriched samples in the presence of 3TC (HBV cccDNA [2]; gRNA B+gRNA H with BE4) | HBV rebound (extracellular HBV DNA, qPCR in supernatant) (Hepatitis B virus) | editing of the naturally integrated HBV genome [3] | extracellular HBsAg (secretion) (HBsAg)
1 | Nc1ccn([C@@H]2CS[C@H](CO)O2)c(=O)n1 [lamivudine, 2′,3′-dideoxy-3′-thiacytidine 4-Amino-1-[(2R,5S)-2-(hydroxymethyl)-1,3-oxathiolan-5-yl]-1,2-dihydropyrimidin-2-one] | improved editing | about 20% | 20 | Higher editing efficiency | rebounded | – | –
2 | MSPbeam37-PLC: guide RNA with spacer sequence SEQ ID NO. 10834, single nucleobase change relative to MSPbeam37 (guide GAAAGCCCAAGAUGAUGGGA; guide RNA scaffold, chemistry not fully specified) | – | – | – | – | – | edited | reduced
